Laboratory results reported in PubChem BioAssay AID1963964 (Molecular Pharmacology Branch, DTP, NCI, 2024).

Tested on: 997726-040-R-J2-PDC tumor spheroids, viability
Experiment: Anticancer human tumor 997726-040-R-J2-PDC patient-derived squamous cell lung carcinoma cell line growth inhibition [PI3K]
Conditions: spheroids with HUVEC and MSC; for IC50: curve of first compound; for viability, T/C: stronger effect = lower value
Text: Combinatorial screen of targeted agents with the PI3K inhibitors inavolisib, alpelisib, duvelisib, and copanlisib in multi-cell type tumor spheroids
A high-throughput screen of multi-cell type tumor spheroids was designed to identify active combinations of targeted small molecules and PI3K pathway inhibitors. Complex spheroids include a stromal component modeled by human endothelial cells (HUVEC) and fibroblasts modeled by human mesenchymal stem cells (MSCs). The concentration ranges selected for each drug and investigational agent were based upon clinically achievable concentrations if the clinical Cmax of the agent was known.
Compounds. The drugs and investigational agents: inavolisib (NSC800729), alpelisib (NSC765974), duvelisib (NSC772469), copanlisib (NSC816437), ipatasertib (NSC767898), afuresertib (NSC778305), talazoparib (NSC767125), sapanisertib (NSC764658), selumetinib (NSC741078), tovorafenib (DAY101, NSC766906), vemurafenib (NSC761431), ravoxertinib (NSC781343), sotorasib (NSC818433), MRTX1133 (NSC 836407), abemaciclib (NSC 768073), palbociclib (NSC758247), venetoclax (NSC 766270), SY5609 (NSC837396), enzalutamide (NSC755605), and darolutamide (NSC825331), were obtained from the National Cancer Institute (NCI) Developmental Therapeutics Program Chemical Repository. The FDA-approved anticancer drug set is available from the NCI Developmental Therapeutics Program. […] The stock solutions were prepared in dimethyl sulfoxide (DMSO, Sigma-Aldrich, St. Louis, MO, cat. D2650) at 800-fold the tested concentration and stored at -70 degrees C prior to their use. All drugs and investigational agents were tested over a range starting from a high concentration at or near the clinical Cmax and decreasing in half-log increments. If the clinical Cmax for an agent had not been determined, the highest concentration tested was 10 microM.
Cell Culture. All cells were maintained in an incubator at 37 degrees C and 5% CO2 with 95% humidity. The PDC lines were cultured according to standard operating procedures established by the NCI PDMR (https://pdmr.cancer.gov/sops/default.htm). All PDCs were thawed and cultured in Matrigel-coated flasks prepared with a working solution of 1X Ham's F-12 nutrient mix, without supplementation (Invitrogen, Waltham, MA, cat. 11765054), 100 U/mL penicillin-streptomycin (Invitrogen, cat. 15140122), and 2.5% Matrigel (Corning Inc., Corning, NY, cat. 354248) for the first three passages. The 354836-022-R-J1-PDC, 475296-252-R-J1-PDC, and 997726-040-R-J2-PDC lines were cultured in 6A media, which includes advanced DMEM/F-12 (Thermo Fisher Scientific, cat. 12634028), 10 mM HEPES (Thermo Fisher Scientific, cat. 15630080), 1X GlutaMAX supplement (Thermo Fisher Scientific, cat. 35050061), 0.1 mg/mL primocin (InvivoGen, San Diego, CA, cat. ant-pm-2), 10% defined fetal bovine serum, heat inactivated (HyClone Laboratories Inc., Logan, UT, cat. SH30070.03HI), 50% L-WRN conditioned media (ATCC, cat. CRL-3276), 1.25 mM N-Acetyl-L-cysteine (Sigma-Aldrich, cat. A9165), 10 mM nicotinamide (Sigma-Aldrich, cat. N0636), 1X B-27 supplement (Thermo Fisher Scientific, cat. 17504044), 1X N-2 supplement (Thermo Fisher Scientific, cat. 17502048), and 10 microM Y-27632 dihydrochloride (Tocris Bioscience, Bristol, United Kingdom, cat. 1254). The 624824-186-R-J2-PDC line was cultured in 6C/Colon 1B media, which includes all 6A media components plus 50 ng/mL human EGF recombinant protein (Thermo Fisher Scientific, cat. PHG0311). […]

[1] = second compound 0.00316 µM, first compound 0.0316 µM
[2] = second compound 0.00316 µM, first compound 0.1 µM
[3] = second compound 0.00316 µM, first compound 0.316 µM
[4] = second compound 0.00316 µM, first compound 1 µM
[5] = second compound 0.00316 µM, first compound 3.16 µM
[6] = second compound 0.00316 µM, first compound 10 µM
[7] = second compound 0.01 µM, first compound 0.0316 µM
[8] = second compound 0.01 µM, first compound 0.1 µM
[9] = second compound 0.01 µM, first compound 0.316 µM
[10] = second compound 0.01 µM, first compound 1 µM
[11] = second compound 0.01 µM, first compound 3.16 µM
[12] = second compound 0.01 µM, first compound 10 µM
[13] = second compound 0.0316 µM, first compound 0.0316 µM
[14] = second compound 0.0316 µM, first compound 0.1 µM
[15] = second compound 0.0316 µM, first compound 0.316 µM
[16] = second compound 0.0316 µM, first compound 1 µM
[17] = second compound 0.0316 µM, first compound 3.16 µM
[18] = second compound 0.0316 µM, first compound 10 µM
[19] = second compound 0.1 µM, first compound 0.0316 µM
[20] = second compound 0.1 µM, first compound 0.1 µM
[21] = second compound 0.1 µM, first compound 0.316 µM
[22] = second compound 0.1 µM, first compound 1 µM
[23] = second compound 0.1 µM, first compound 3.16 µM
[24] = second compound 0.1 µM, first compound 10 µM
[25] = second compound 0.316 µM, first compound 0.0316 µM
[26] = second compound 0.316 µM, first compound 0.1 µM
[27] = second compound 0.316 µM, first compound 0.316 µM
[28] = second compound 0.316 µM, first compound 1 µM
[29] = second compound 0.316 µM, first compound 3.16 µM
[30] = second compound 0.316 µM, first compound 10 µM
[31] = second compound 1 µM, first compound 0.0316 µM
[32] = second compound 1 µM, first compound 0.1 µM
[33] = second compound 1 µM, first compound 0.316 µM
[34] = second compound 1 µM, first compound 1 µM
[35] = second compound 1 µM, first compound 3.16 µM
[36] = second compound 1 µM, first compound 10 µM
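Also: spheroids exposed to compounds for seven days before readout.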

`CC1(C)CCC(CN2CCN(c3ccc(C(=O)NS(=O)(=O)c4ccc(NCC5CCOCC5)c([N+](=O)[O-])c4)c(Oc4cnc5[nH]ccc5c4)c3)CC2)=C(c2ccc(Cl)cc2)C1` + CC(Nc1ccc2c(c1)OCCn1cc(N3C(=O)OCC3C(F)F)nc1-2)C(N)=O showed an IC50 (second compound 0.00316 µM) of 9.17 µM, an IC50 (second compound 0.01 µM) of 9.25 µM and an IC50 (second compound 0.0316 µM) of 5.87 µM. For the same molecule, the IC50 (second compound 0.1 µM) was < 0.0316 µM, the IC50 (second compound 0.316 µM) was < 0.0316 µM and the IC50 (second compound 1 µM) was < 0.0316 µM. The viability, T/C [1] was 74.8%, the viability, T/C [2] was 82.8% and the viability, T/C [3] was 92.2%. It also gave a viability, T/C [4] of 83.6%, a viability, T/C [5] of 73.1% and a viability, T/C [6] of 48.1%. The viability, T/C [7] was 64.9%, the viability, T/C [8] was 86.6% and the viability, T/C [9] was 74.2%. It also gave a viability, T/C [10] of 81.6%, a viability, T/C [11] of 70% and a viability, T/C [12] of 48.1%. The viability, T/C [13] was 60.8%, the viability, T/C [14] was 63.8% and the viability, T/C [15] was 70.7%. For the same molecule, the viability, T/C [16] was 55%, the viability, T/C [17] was 62.9% and the viability, T/C [18] was 39.5%. For the same molecule, the viability, T/C [19] was 42.5%, the viability, T/C [20] was 42.1% and the viability, T/C [21] was 43.5%. For the same molecule, the viability, T/C [22] was 37.2%, the viability, T/C [23] was 39.8% and the viability, T/C [24] was 28.3%. The viability, T/C [25] was 30.7%, the viability, T/C [26] was 33.3% and the viability, T/C [27] was 32.9%. The viability, T/C [28] was 29.9%, the viability, T/C [29] was 24.1% and the viability, T/C [30] was 15.9%. The viability, T/C [31] was 27.9%, the viability, T/C [32] was 21.5% and the viability, T/C [33] was 24.5%. For the same molecule, the viability, T/C [34] was 27.7%, the viability, T/C [35] was 24.8% and the viability, T/C [36] was 12.3%.

`C[C@@H](NC(=O)c1ncnc(N)c1Cl)c1ncc(C(=O)Nc2cc(C(F)(F)F)c(Cl)cn2)s1` + CC(Nc1ccc2c(c1)OCCn1cc(N3C(=O)OCC3C(F)F)nc1-2)C(N)=O was tested, and the IC50 (second compound 0.00316 µM) was > 10 µM, the IC50 (second compound 0.01 µM) was > 10 µM and the IC50 (second compound 0.0316 µM) was 6.26 µM. The IC50 (second compound 0.1 µM) was 4.17 µM, the IC50 (second compound 0.316 µM) was < 0.0316 µM and the IC50 (second compound 1 µM) was < 0.0316 µM. For the same molecule, the viability, T/C [1] was 92.1%, the viability, T/C [2] was 122% and the viability, T/C [3] was 104%. The viability, T/C [4] was 100%, the viability, T/C [5] was 85.3% and the viability, T/C [6] was 60.4%. It also gave a viability, T/C [7] of 89.5%, a viability, T/C [8] of 95.2% and a viability, T/C [9] of 93.5%. It also gave a viability, T/C [10] of 93.7%, a viability, T/C [11] of 80.7% and a viability, T/C [12] of 58.3%. The viability, T/C [13] was 67%, the viability, T/C [14] was 80.4% and the viability, T/C [15] was 66.1%. For the same molecule, the viability, T/C [16] was 61.9%, the viability, T/C [17] was 57.9% and the viability, T/C [18] was 45.3%. It also gave a viability, T/C [19] of 55%, a viability, T/C [20] of 53.7% and a viability, T/C [21] of 58.3%. The viability, T/C [22] was 58.3%, the viability, T/C [23] was 51.8% and the viability, T/C [24] was 40.5%. It also gave a viability, T/C [25] of 42.3%, a viability, T/C [26] of 39.3% and a viability, T/C [27] of 37.1%. It also gave a viability, T/C [28] of 41%, a viability, T/C [29] of 39.2% and a viability, T/C [30] of 30.7%. The viability, T/C [31] was 34%, the viability, T/C [32] was 33.8% and the viability, T/C [33] was 33.6%. It also gave a viability, T/C [34] of 35.5%, a viability, T/C [35] of 33.6% and a viability, T/C [36] of 24.1%.
